Test results reported in US11492335B2, “Aryl or heteroaryl triazolone derivatives or salts thereof, or pharmaceutical compositions comprising the same” (YUHAN CORPORATION, priority 2018, dated 2022).
Where a name gives a salt, the structure may show the parent alone. Read-outs that look alike come from different tables or passages of the source.

What was measured:
recombinant human VAP-1 = biological target: T1, recombinant human VAP-1 (Homo sapiens, UniProt Q16853); experiment: Activity on recombinant human VAP-1, Amplex Red HRP-coupled hydrogen peroxide assay, benzylamine substrate; assay type: biochemical; settings: recombinant human VAP-1, benzylamine substrate, read-out: Inhibitory Activity (IC50, nM) human VAP-1
T1 construct: purchased R&D systems
T1 sequence (Q16853 1-763): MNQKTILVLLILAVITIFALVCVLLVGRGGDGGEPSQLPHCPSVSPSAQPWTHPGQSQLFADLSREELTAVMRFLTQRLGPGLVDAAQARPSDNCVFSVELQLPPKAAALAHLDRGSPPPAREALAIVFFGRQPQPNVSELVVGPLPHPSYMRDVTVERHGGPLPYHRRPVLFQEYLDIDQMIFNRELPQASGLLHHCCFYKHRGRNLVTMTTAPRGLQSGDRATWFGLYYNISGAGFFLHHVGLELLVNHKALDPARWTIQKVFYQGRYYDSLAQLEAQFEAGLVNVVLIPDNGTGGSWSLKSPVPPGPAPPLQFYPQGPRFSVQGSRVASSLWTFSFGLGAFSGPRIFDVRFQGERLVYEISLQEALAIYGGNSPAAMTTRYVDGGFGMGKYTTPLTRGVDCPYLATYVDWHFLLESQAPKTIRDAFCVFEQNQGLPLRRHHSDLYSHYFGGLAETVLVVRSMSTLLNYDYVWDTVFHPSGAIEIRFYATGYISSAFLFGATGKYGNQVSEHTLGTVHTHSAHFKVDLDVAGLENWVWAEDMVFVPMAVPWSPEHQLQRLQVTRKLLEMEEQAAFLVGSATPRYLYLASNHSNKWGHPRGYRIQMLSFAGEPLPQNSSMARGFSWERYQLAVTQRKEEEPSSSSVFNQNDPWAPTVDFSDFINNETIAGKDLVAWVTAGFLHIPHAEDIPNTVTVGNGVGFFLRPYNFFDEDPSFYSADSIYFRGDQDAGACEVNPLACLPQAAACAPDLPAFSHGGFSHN
Description: (§1) The compounds according to the present technology were evaluated in terms of activity on recombinant human VAP-1 (R&D systems) by measuring the level of hydrogen peroxide in horseradish peroxidase (HRP)-coupled reaction using Amplex Red Hydrogen Peroxide Assay Kit (Molecular Probes, Invitrogen, USA). The experiment was carried out at room temperature using benzylamine as a substrate. In the HRP-coupled reaction, hydrogen peroxide oxidation of 10-acetyl-3,7-dihydroxyphenoxazine (Amplex Red reagent) produces resorufin, which is a highly fluorescent compound. Briefly, the test compound was dissolved in dimethyl sulfoxide (DMSO) at a concentration of 20 mM. The dose-response assessment was made by 1:3 serial dilution in DMSO, thereby creating an 8 point curve. The concentration of the upper part was controlled according to the efficacy of the compounds, followed by dilution with a reaction buffer solution to obtain a final DMSO concentration less than 1%. To each well of a 96 black well plate, human VAP-1 purified in 50 mM sodium phosphate buffer solution (pH7.4) was added. The test compounds dissolved in DMSO were incubated with the human VAP-1 enzymes at 37° C. for 30 minutes. After 30-minute incubation, each well is added with a reaction mixture containing 200 uM Amplex Red reagent prepared from 50 mM sodium phosphate buffer solution (pH 7.4), 1 mM benzylamine, and 1 U/mL HRP. Fluorescence intensity was measured at several time points during 1-2 hours using a microplate reader (Flexstation3, Molecular Devices) under the wavelength condition exciting at 544 nm and reading the emission at 590 nm. The inhibitory effect of the compounds was measured as a decrease (%) in the signal rate as compared to the control group without any inhibitor (only diluted DMSO). Data was fixed to a logistic model with four variables and IC50 value was calculated using GraphPad Prism program.

[1] = biological target: T2, recombinant human DAO (diamine oxidase) (Homo sapiens, UniProt P19801); experiment: Activity on recombinant human DAO, Amplex Red method, 1 mM putrescine substrate; assay type: biochemical; settings: recombinant human DAO, 1 mM putrescine; * = between 10 and 100 nM, ** = between 300 and 1000 nM; read-out: Inhibitory Activity (IC50, nM) DAO
T2 construct: purchased R&D systems
T2 sequence (P19801 20-751): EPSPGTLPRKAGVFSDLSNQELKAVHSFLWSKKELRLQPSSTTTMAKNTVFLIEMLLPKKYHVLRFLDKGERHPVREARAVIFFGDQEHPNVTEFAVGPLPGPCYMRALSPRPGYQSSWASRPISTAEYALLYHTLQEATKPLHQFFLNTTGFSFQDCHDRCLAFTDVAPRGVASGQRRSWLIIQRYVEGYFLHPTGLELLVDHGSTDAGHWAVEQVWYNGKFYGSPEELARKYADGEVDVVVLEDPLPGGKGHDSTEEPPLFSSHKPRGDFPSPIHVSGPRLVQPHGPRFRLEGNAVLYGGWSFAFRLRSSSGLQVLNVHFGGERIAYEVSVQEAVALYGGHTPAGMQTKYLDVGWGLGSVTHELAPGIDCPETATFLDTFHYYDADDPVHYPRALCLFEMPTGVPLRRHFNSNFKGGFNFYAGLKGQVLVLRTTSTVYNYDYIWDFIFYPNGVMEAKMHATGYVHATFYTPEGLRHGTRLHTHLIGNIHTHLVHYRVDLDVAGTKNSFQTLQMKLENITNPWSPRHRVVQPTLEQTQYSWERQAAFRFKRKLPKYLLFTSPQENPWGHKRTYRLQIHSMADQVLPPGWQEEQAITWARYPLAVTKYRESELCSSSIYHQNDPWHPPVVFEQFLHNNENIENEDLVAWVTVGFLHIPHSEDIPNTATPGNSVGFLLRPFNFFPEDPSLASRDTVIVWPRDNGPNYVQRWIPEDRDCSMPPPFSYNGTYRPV
Description: as §1
In addition, the compounds according to the present technology were evaluated in terms of activity on a recombinant human MAO-A (monoamine oxidase-A, Sigma-Aldrich) and a recombinant human MAO-B (monoamine oxidase-B, Sigma-Aldrich) by using as substrates, 0.5 mM tyramine and 1 mM benzylamine, respectively, with a method similar to the activity evaluation method for recombinant human VAP-1. The compounds according to the present technology were also evaluated in terms of activity on a recombinant human DAO (diamine oxidase, R&D systems) by using as a substrate 1 mM putrescine with a method similar to the activity evaluation method for recombinant human VAP-1.

SMILES | IC50 (recombinant human VAP-1; 30 min preincubation at 37° C.) [nM] | IC50 [1] [nM] | IC50 (recombinant human VAP-1) [nM]
NC/C(=C/F)Cn1ncn(-c2ccc(Br)cc2)c1=O [Example 1, 2-[(2Z)-2-(aminomethyl)-3-fluoroprop-2-en-1-yl]-4-(4-bromophenyl)-2,4-dihydro-3H-1,2,4-triazol-3-one] | 17 |  | 
Cc1cc(Br)ncc1-n1cnn(C/C(=C/F)CN)c1=O [Example 28, 2-[(2E)-2-(aminomethyl)-3-fluoroprop-2-en-1-yl]-4-(6-bromo-4-methylpyridin-3-yl)-2,4-dihydro-3H-1,2,4-triazol-3-one hydrochloride] | 45 | 1100 | 
Cc1cc(Br)cnc1-n1cnn(C/C(=C\F)CN)c1=O [Example 31, 2-[(2Z)-2-(aminomethyl)-3-fluoroprop-2-en-1-yl]-4-(5-bromo-3-methylpyridin-2-yl)-2,4-dihydro-3H-1,2,4-triazol-3-one hydrochloride] | 47 |  | 
Cc1cc(-n2cnn(C/C(=C\F)CN)c2=O)ncc1Br [Example 33, 2-[(2Z)-2-(aminomethyl)-3-fluoroprop-2-en-1-yl]-4-(5-bromo-4-methylpyridin-2-yl)-2,4-dihydro-3H-1,2,4-triazol-3-one hydrochloride] | 31 |  | 
COc1cc(N2CCOCC2)c(Br)cc1-n1cnn(C/C(=C/F)CN)c1=O [Example 47, 2-[(2E)-2-(aminomethyl)-3-fluoroprop-2-en-1-yl]-4-[5-bromo-2-methoxy-4-(morpholin-4-yl)phenyl]-2,4-dihydro-3H-1,2,4-triazol-3-one hydrochloride] | 2.8 | 1200 | 
CS(=O)(=O)c1ccc(-c2cccc(-n3cnn(C/C(=C\F)CN)c3=O)c2)cc1 [Example 53, 2-[(2Z)-2-(aminomethyl)-3-fluoroprop-2-en-1-yl]-4-[4′-(methylsulfonyl)biphenyl-3-yl]-2,4-dihydro-3H-1,2,4-triazol-3-one hydrochloride] | 2.5 | < 30 | 
NC/C(=C/F)Cn1ncn(-c2cccc(-c3cccc(-c4nnc[nH]4)c3)c2)c1=O [Example 60, 2-[(2Z)-2-(aminomethyl)-3-fluoroprop-2-en-1-yl]-4-[3′-(4H-1,2,4-triazol-3-yl)biphenyl-3-yl]-2,4-dihydro-3H-1,2,4-triazol-3-one] | 1.3 | < 100 | 
Cc1ncc(-c2cccc(-n3cnn(C/C(=C/F)CN)c3=O)c2)cn1 [Example 91, 2-[(2E)-2-(aminomethyl)-3-fluoroprop-2-en-1-yl]-4-[3-(2-methylpyrimidin-5-yl)phenyl]-2,4-dihydro-3H-1,2,4-triazol-3-one hydrochloride] | 1.5 | 13 | 
NC/C(=C\F)Cn1ncn(-c2cccc(-c3cncc4ccccc34)c2)c1=O [Example 104, 2-[(2E)-2-(aminomethyl)-3-fluoroprop-2-en-1-yl]-4-[3-(isoquinolin-4-yl)phenyl]-2,4-dihydro-3H-1,2,4-triazol-3-one hydrochloride] | 3 | 54 | 
CC(=O)Nc1cc(-c2cccc(-n3cnn(C/C(=C/F)CN)c3=O)c2C)ccn1 [Example 109, N-[4-(3-{1-[(2E)-2-(aminomethyl)-3-fluoroprop-2-en-1-yl]-5-oxo-1,5-dihydro-4H-1,2,4-triazol-4-yl}-2-methylphenyl)pyridin-2-yl]acetamide] | 8.1 | 740 | 
Cc1c(-c2ccc3nonc3c2)cccc1-n1cnn(C/C(=C/F)CN)c1=O [Example 113, 2-[(2E)-2-(aminomethyl)-3-fluoroprop-2-en-1-yl]-4-[3-(2,1,3-benzooxadiazol-5-yl)-2-methylphenyl]-2,4-dihydro-3H-1,2,4-triazol-3-one] | 2.3 | < 1000 | 
Cc1cc(-c2ccc(S(C)(=O)=O)cc2)ncc1-n1cnn(C/C(=C/F)CN)c1=O [Example 119, 2-[(2E)-2-(aminomethyl)-3-fluoroprop-2-en-1-yl]-4-{4-methyl-6-[4-(methylsulfonyl)phenyl]pyridin-3-yl}-2,4-dihydro-3H-1,2,4-triazol-3-one] | 0.94 | < 100 | 
Cc1cc(-c2cccc(-c3nc[nH]n3)c2)ncc1-n1cnn(C/C(=C/F)CN)c1=O [Example 122, 2-[(2E)-2-(aminomethyl)-3-fluoroprop-2-en-1-yl]-4-{4-methyl-6-[3-(1H-1,2,4-triazol-3-yl)phenyl]pyridin-3-yl}-2,4-dihydro-3H-1,2,4-triazol-3-one] | 0.77 | < 100 | 
Cc1cc(-c2ccc3nonc3c2)ncc1-n1cnn(C/C(=C/F)CN)c1=O [Example 125, 2-[(2E)-2-(aminomethyl)-3-fluoroprop-2-en-1-yl]-4-[6-(2,1,3-benzooxadiazol-5-yl)-4-methylpyridin-3-yl]-2,4-dihydro-3H-1,2,4-triazol-3-one] | 1.2 | < 100 | 
CC(=O)Nc1nc2cc(-c3cc(C)c(-n4cnn(C/C(=C/F)CN)c4=O)cn3)ccc2s1 [Example 128, N-[5-(5-{1-[(2E)-2-(aminomethyl)-3-fluoroprop-2-en-1-yl]-5-oxo-1,5-dihydro-4H-1,2,4-triazol-4-yl}-4-methylpyridin-2-yl)-1,3-benzothiazol-2-yl]acetamide] | 0.82 | < 100 | 
Cc1cc(N2CCNCC2)cnc1-n1cnn(C/C(=C/F)CN)c1=O [Example 131, 2-[(2E)-2-(aminomethyl)-3-fluoroprop-2-en-1-yl]-4-[3-methyl-5-(piperazin-1-yl)pyridin-2-yl]-2,4-dihydro-3H-1,2,4-triazol-3-one] | 8.2 | 4200 | 
NC/C(=C\F)Cn1ncn(-c2cccc(-c3ccc(-c4noc(=O)[nH]4)cc3)n2)c1=O [Example 182, 3-[4-(6-{1-[(2E)-2-(aminomethyl)-3-fluoroprop-2-en-1-yl]-5-oxo-1,5-dihydro-4H-1,2,4-triazol-4-yl}pyridin-2-yl)phenyl]-1,2,4-oxadiazol-5(4H)-one hydrochloride] |  |  | 23
